Experimental data taken from PMC10673511, “Design, Synthesis and Bioactivity Evaluation of Heterocycle-Containing Mono- and Bisphosphonic Acid Compounds” (Molecules, 2023).
Converted amounts (≈) assume the structure as drawn. Like-named read-outs stand apart in the source and are kept apart here.

Key:
[1] = target: recombinant E. coli DXR (EcDXR) (Escherichia coli, UniProt P45568); assay: biochemical; conditions: read-out: InR (%) on DXR enzyme
Arabidopsis thaliana = assay: Arabidopsis growth inhibition assay (24-well plates, green channel pixel value); conditions: Arabidopsis thaliana, 240 h; for EC50: read-out: EC50 against Arabidopsis growth; for pest or weed control at 100 µg/mL: read-out: InR (%) against Arabidopsis
Echinochloa crus-galli = assay: Pre-emergence herbicidal inhibition assay, Petri dish test, EC; type: in vivo; conditions: for EC50: Echinochloa crus-galli, 168 h; for Relative activity ratio (EC root) / Relative activity ratio (EC stalk): relative to FOS
Protocol: (§1) The pre-emergence activity of the compounds against monocot Echinochloa crus-galli (EC) and dicot Brassica napus L. (BN) was evaluated using the standard Petri dish test. The compounds were dissolved in DMF, emulsified with Tween-80 and diluted with water to form stock solutions, each of which was further diluted to a gradient of 100, 50, 25, 10 and 1 mg/L for test. The test solutions were added to Petri dishes lined with a filter paper, on which 10 seeds of EC and BN were placed. After cultured in an intelligent climate chamber with a humidity of 65% at 26 °C for 7 days, the corresponding EC50 values were calculated.

Brassica napus L. = assay: Pre-emergence herbicidal inhibition assay, Petri dish test, BN; type: in vivo; conditions: for EC50: Brassica napus, 168 h; for Relative activity ratio (BN root) / Relative activity ratio (BN stalk): relative to FOS
Protocol: as §1

[2] = root, 7 days, read-out: EC50 EC Root
[3] = stalk, 7 days, read-out: EC50 EC Stalk
[4] = root, 7 days, read-out: EC50 BN Root
[5] = stalk, 7 days, read-out: EC50 BN Stalk

recombinant E. coli DXR (EcDXR), sequence (P45568 whole entry): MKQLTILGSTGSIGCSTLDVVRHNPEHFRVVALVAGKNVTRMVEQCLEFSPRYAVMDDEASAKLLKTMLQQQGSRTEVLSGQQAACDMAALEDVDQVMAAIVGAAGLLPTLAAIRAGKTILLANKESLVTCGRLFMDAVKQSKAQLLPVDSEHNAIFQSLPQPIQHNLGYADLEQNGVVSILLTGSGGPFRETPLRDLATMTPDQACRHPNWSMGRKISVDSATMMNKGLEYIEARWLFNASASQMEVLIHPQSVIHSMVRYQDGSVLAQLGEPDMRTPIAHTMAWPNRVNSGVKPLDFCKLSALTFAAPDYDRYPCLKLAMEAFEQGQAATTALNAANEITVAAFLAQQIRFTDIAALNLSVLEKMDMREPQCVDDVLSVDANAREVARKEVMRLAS

SMILES | inhibition at 100 µM [1] [%] | EC50 (Arabidopsis thaliana) [µg/mL] | pest or weed control at 100 µg/mL (Arabidopsis thaliana) [%] | EC50 (Echinochloa crus-galli; [2]) [µg/mL] | EC50 (Echinochloa crus-galli; [3]) [µg/mL] | Relative activity ratio (EC root) (Echinochloa crus-galli) [fold] | Relative activity ratio (EC stalk) (Echinochloa crus-galli) [fold] | EC50 (Brassica napus L.; [4]) [µg/mL] | EC50 (Brassica napus L.; [5]) [µg/mL] | Relative activity ratio (BN root) (Brassica napus L.) [fold] | Relative activity ratio (BN stalk) (Brassica napus L.) [fold] | melting point [°C] | EC50 (Echinochloa crus-galli; read-out: EC50 EC Root) [µg/mL] | EC50 (Echinochloa crus-galli; read-out: EC50 EC Stalk) [µg/mL] | EC50 (Brassica napus L.; read-out: EC50 BN Root) [µg/mL] | EC50 (Brassica napus L.; read-out: EC50 BN Stalk) [µg/mL]
CCCc1onc(O)c1CC(P(=O)(O)O)P(=O)(O)O [Compound 13c] | 28.4 | 48.4 ± 5.3 (≈ 154 µM) | 100 | 43.9 (≈ 139 µM) | 45.8 (≈ 145 µM) | 0.9 | 0.8 | 27.7 (≈ 87.9 µM) | 46.9 (≈ 149 µM) | 1.3 | 0.7 | – | – | – | – | –
CCc1noc(CC)c1CC(P(=O)(O)O)P(=O)(O)O [Compound 13h] | 10.3 | > 100 | 43.2 | 48 (≈ 153 µM) | 45.7 (≈ 146 µM) | – | – | 39.2 (≈ 125 µM) | 50.8 (≈ 162 µM) | – | – | > 250 | – | – | – | –
Cc1onc(C(F)(F)F)c1CC(P(=O)(O)O)P(=O)(O)O [Compound 13i] | 30.3 | 40.7 ± 2.9 (≈ 120 µM) | 90.1 | 32.1 (≈ 94.7 µM) | 34.6 (≈ 102 µM) | 1.3 | 1.1 | 40.5 (≈ 119 µM) | 33.5 (≈ 98.8 µM) | 0.9 | 1.0 | 240 to 241 | – | – | – | –
CC1(C)CON(CCCP(=O)(O)O)C1=O [Compound 19] | 22.5 | > 100 | 43.2 | > 100 | 88 (≈ 371 µM) | 0.4 | 0.4 | 79.3 (≈ 334 µM) | 39.2 (≈ 165 µM) | 0.4 | 0.8 | > 250 | – | – | – | –
Cc1n[nH]c(O)c1CC(P(=O)(O)O)P(=O)(O)O [Compound 12a] | 13.7 | > 100 | 47.2 | > 100 | 47.7 (≈ 167 µM) | – | – | 51.3 (≈ 179 µM) | 87.1 (≈ 304 µM) | – | – | > 250 | – | – | – | –
CC(C)c1onc(O)c1CCP(=O)(O)O [Compound 6d] | 17.3 | 45.7 ± 4.8 (≈ 194 µM) | 100 | 40.1 (≈ 171 µM) | 25.7 (≈ 109 µM) | 1.0 | 1.5 | 67.5 (≈ 287 µM) | 38.2 (≈ 162 µM) | 0.5 | 0.9 | – | – | – | – | –
CC(C)c1n[nH]c(O)c1CCP(=O)(O)O [Compound 5d] | 17.7 | > 100 | 48.3 | 32.1 (≈ 137 µM) | > 100 | – | – | > 100 | 96.9 (≈ 414 µM) | – | – | 210 to 211 | – | – | – | –
Cc1n[nH]c(O)c1CCP(=O)(O)O [Compound 5a] | 11.9 | > 100 | 24 | – | – | – | – | – | – | – | – | 220 to 221 | 54.1 (≈ 262 µM) | 68.5 (≈ 332 µM) | > 100 | 32.8 (≈ 159 µM)
Cc1noc(C)c1CC(P(=O)(O)O)P(=O)(O)O [Compound 13g] | 7.3 | > 100 | 39.7 | 79.8 (≈ 280 µM) | 32.3 (≈ 113 µM) | – | – | 60.4 (≈ 212 µM) | 41.5 (≈ 146 µM) | – | – | > 250 | – | – | – | –
CCc1n[nH]c(O)c1CCP(=O)(O)O [Compound 5b] | 12.9 | > 100 | 26.5 | – | – | – | – | – | – | – | – | 217 to 218 | 86.7 (≈ 394 µM) | 92.2 (≈ 419 µM) | > 100 | > 100
CCc1onc(O)c1CC(P(=O)(O)O)P(=O)(O)O [Compound 13b] | 27.4 | 37.7 ± 2.8 (≈ 125 µM) | 100 | 29.9 (≈ 99.3 µM) | 35.3 (≈ 117 µM) | 1.3 | 1.1 | 38.8 (≈ 129 µM) | 20.2 (≈ 67.1 µM) | 0.9 | 1.6 | – | – | – | – | –
